In patent US20240254138A1, “TRICYCLIC PYRIMIDINES AS CYCLIN-DEPENDENT KINASE 7 (CDK7) INHIBITORS” (JANSSEN PHARMACEUTICA NV, priority 2021, published 2024):
Where two headings read alike, the source gives them in different places.

How the values were obtained:
[1] = test system: RNA Polymerase II Serine 5 phosphorylation in A549 cells overexpressing CDK7-mutant (C312S); experiment: Imaging-based cellular RNA PolII Ser5 phosphorylation assay in A549 cells overexpressing CDK7-mutant (C312S); format: cell-based, human; details: RNA PolII Ser5 phosphorylation, averaged over all measurements; for IC50: Homo sapiens, A549, A549 cells overexpressing CDK7-mutant (C312S), read-out: CDK7_A549 mutant hCDK7(pIC50) (converted); for CDK7_A549 mutant hCDK7(pIC50): A549 cells overexpressing CDK7-mutant (C312S)
Summary of the method: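 A549 cells overexpressing CDK7 C312S (with endogenous wild-type CDK7) were treated with compound for 3 h at 37 °C in 1% FBS medium. Phospho-Rpb1 CTD Ser5 was immunostained after fixation and imaged. IC50 came from curve fit of % control, normalised to DMSO and 10 μM reference-compound controls.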

[2] = target: CDK7/cyclinH/MAT1 trimeric complex (Homo sapiens, UniProt P50613); experiment: In vitro CDK7 assay, potency of irreversible covalent inhibitors (kinact/KI), coupled PK/LDH ADP readout at 340 nm; details: for CDK7 (kinact/KI, M^−1*s^−1): potency of irreversible covalent inhibitors
Sequence of CDK7/cyclinH/MAT1 trimeric complex (P50613 whole entry): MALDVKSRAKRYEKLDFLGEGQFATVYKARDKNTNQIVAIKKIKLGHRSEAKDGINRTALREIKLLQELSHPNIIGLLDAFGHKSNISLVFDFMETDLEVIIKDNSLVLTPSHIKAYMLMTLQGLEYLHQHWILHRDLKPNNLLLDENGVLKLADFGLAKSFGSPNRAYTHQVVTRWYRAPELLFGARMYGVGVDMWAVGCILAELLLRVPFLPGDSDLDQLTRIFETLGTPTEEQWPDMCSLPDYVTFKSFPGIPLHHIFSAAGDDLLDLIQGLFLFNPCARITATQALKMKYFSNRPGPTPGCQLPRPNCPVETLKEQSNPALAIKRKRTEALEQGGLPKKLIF
Sequence of CDK7/cyclinH/MAT1 trimeric complex (P51946 whole entry partner): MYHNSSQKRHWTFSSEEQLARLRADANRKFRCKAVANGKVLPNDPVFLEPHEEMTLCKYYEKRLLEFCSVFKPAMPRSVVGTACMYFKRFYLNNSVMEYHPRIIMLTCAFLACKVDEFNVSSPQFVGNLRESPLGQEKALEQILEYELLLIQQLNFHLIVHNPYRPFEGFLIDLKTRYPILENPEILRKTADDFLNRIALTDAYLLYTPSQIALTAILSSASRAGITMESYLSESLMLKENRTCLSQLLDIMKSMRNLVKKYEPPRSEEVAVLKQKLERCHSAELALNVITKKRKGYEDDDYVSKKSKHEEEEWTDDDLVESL
Sequence of CDK7/cyclinH/MAT1 trimeric complex (P51948 whole entry partner): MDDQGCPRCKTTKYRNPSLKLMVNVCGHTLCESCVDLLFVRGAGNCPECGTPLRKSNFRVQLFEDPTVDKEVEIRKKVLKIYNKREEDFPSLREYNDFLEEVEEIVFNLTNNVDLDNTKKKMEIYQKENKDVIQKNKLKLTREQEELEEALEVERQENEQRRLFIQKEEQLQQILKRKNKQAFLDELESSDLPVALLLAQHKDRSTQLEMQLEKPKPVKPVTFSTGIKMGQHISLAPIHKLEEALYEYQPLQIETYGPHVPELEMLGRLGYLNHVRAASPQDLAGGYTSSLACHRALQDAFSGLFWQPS

[3] = test system: RNA Polymerase II Serine 5 phosphorylation (Rpb1 CTD, downstream substrate of CDK7) in A549 cells; experiment: Imaging-based cellular RNA PolII Ser5 phosphorylation assay in A549 cells; format: cell-based, human; details: wild-type CDK7, RNA PolII Ser5 phosphorylation, averaged over all measurements; for IC50: Homo sapiens, A549, A549 cells, read-out: CDK7_A549 Wild-type CDK7 (pIC50) (converted); for CDK7_A549 Wild-type CDK7 (pIC50): A549 cells
Summary of the method: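 A549 cells, seeded 1000/well in DMEM with 1% FBS and cultured 20 h, were treated with compound for 3 h at 37 °C. Ser5-phospho-Rpb1 CTD detected by immunofluorescence imaging after fixation and methanol permeabilization; IC50 from curve fit normalized to DMSO and 10 μM reference-compound controls.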

[4] = CDK7 (20 nM enz.) (KI, μM), 20 nM enzyme
[5] = read-out: CDK7 (20 nM enz.) (kinact, s^−1), 20 nM enzyme
[6] = read-out: CDK7 (20 nM enz.) (kinact/KI, M^−1*s^−1), 20 nM enzyme
[7] = read-out: CDK7 (20 nM enz.) (kobs/[I], M^−1*s^−1), 20 nM enzyme
[8] = read-out: CDK7 (kinact/KI, M^−1*s^−1), potency of irreversible covalent inhibitors, 1 mM ATP, room temperature, averaged values over all measurements
[9] = 1 mM ATP, room temperature, averaged values over all measurements

| SMILES | IC50 [1] [µM] | Ki [2, 4] [µM] | kinact [2, 5] [s⁻¹] | kinact/KI [2, 6] [M⁻¹ s⁻¹] | IC50 [3] [µM] | further results |
| --- | --- | --- | --- | --- | --- | --- |
| C=CC(=O)N1CC[C@H](N2CC(c3cc4c(c(C5CC5)n3)OCc3c(-c5cnn(C)c5)ccnc3N4)C2)C1 (single isomer, unassigned) [Compound 287] | > 10 | 0.188 | 0.000117 | 622 | 0.129 |  |
| C=CC(=O)N1CCC(N2CC(c3cc4c(c(C)n3)OCc3c(-c5cnn(C)c5)ccnc3N4)C2)CC1 [Compound 170] | 7.76 | 0.125 | 3.7e-05 | 296 | 0.12 |  |
| C=CC(=O)N1CC(N2CCC(c3cc4c(c(C5CC5)c3)OCc3c(C5CCOCC5)ccnc3N4)CC2)C1 [Compound 87] | > 10 |  |  |  | 0.0813 | kinact/KI [2, 7]: 1420 M⁻¹ s⁻¹ |
| CC#CC(=O)N1CCC(N2CC(c3cc(C#N)c4c(c3)Nc3nccc(N5CCOCC5)c3[C@@H](C)O4)C2)C1 (mixture of isomers) [Compound 493] | 5.89 |  |  | 397 | 0.12 |  |
| CC#CC(=O)N1CCC(N2CC(c3cc4c(c(C5CC5)n3)OCc3c(N5CCOCC5)ccnc3N4)C2)CC1 [Compound 335] | 3.63 | 0.0383 | 1.86e-05 | 486 | 0.055 |  |
| CC#CC(=O)N1CCC(N2CC(c3cc4c(c(C5CC5)n3)O[C@H](C)c3c(N5CCOCC5)ccnc3N4)C2)CC1 (single isomer, unassigned) [Compound 376] | 5.01 | 0.0467 | 9.41e-05 | 2020 | 0.0355 |  |
| C=CC(=O)N1CC(N2CCC(c3ccc4c(c3)Nc3nccc(-c5cnn(C)c5)c3CO4)CC2)C1 [Compound 39] | > 10 |  |  |  | 0.141 | kinact/KI [2, 8]: 803 M⁻¹ s⁻¹ |
| CC#CC(=O)N1CC(N2CC[C@@H](c3cc4c(c(C)n3)O[C@H](C)c3c(N5CCOCC5)ccnc3N4)N(C)CC2)C1 (single isomer, unassigned) [Compound 527] | > 10 | 1.81 | 1.58e-05 | 8.74 | 9.77 |  |
| C#Cc1cc(C(=O)Nc2ccc3c(c2)Nc2nccc(C4CCOCC4)c2CO3)ccc1NC(=O)C=C [Compound 18] | 4.27 |  |  |  | 0.1 | kinact/KI [2, 7]: 1070 M⁻¹ s⁻¹ |
| C=CC(=O)N1CC[C@H](N2CC(c3cc4c(c(C(F)(F)F)n3)O[C@H](C)c3c(N5CCOCC5)ccnc3N4)C2)C1 (single isomer, unassigned) [Compound 503] |  |  |  |  |  | CDK7_A549 mutant hCDK7(pIC50) [1]: 5.12; CDK7 (20 nM enz.) (kinact/KI, M^−1*s^−1) ([2]; 20 nM enzyme): 629.38 M⁻¹ s⁻¹; CDK7_A549 Wild-type CDK7 (pIC50) [3]: 6.88 |
| C=CC(=O)N1CC(N2CCC(c3ccc4c(c3)Nc3nccc(N5CCc6nn(C)cc6C5)c3CO4)CC2)C1 [Compound 132] | > 10 | 0.312 | 7.08e-05 | 227 | 0.363 |  |
| C=CC(=O)N1CC(N2CC[C@H](c3cc4c(c(C)n3)OCc3c(N5CCOCC5)ccnc3N4)N(C)CC2)C1 (single isomer, unassigned) [Compound 452] | 6.92 | 0.0493 | 4.92e-05 | 997 | 0.0646 |  |
| C#Cc1cc2c(cc1C1CCN(C3CN(C(=O)C=C)C3)CC1)Nc1nccc(N3CCOCC3)c1[C@@H](C)O2 (single isomer, unassigned) [Compound 211] |  | 7.29 | 7.18e-05 | 9.85 |  | CDK7_A549 mutant hCDK7(pIC50) [1]: <5; CDK7_A549 Wild-type CDK7 (pIC50) [3]: ~5 |
| CC#CC(=O)N1CC(N2CC[C@@H](c3cc4c(c(C)n3)O[C@H](C)c3c(N5CCOCC5)ccnc3N4)C2)C1 (single isomer, unassigned) [Compound 308] | > 10 | 0.434 | 1.51e-05 | 34.8 | 0.447 |  |
| C=CC(=O)N1CC(N2CCC(c3ccc4c(c3)Nc3nccc(C5CCOCC5)c3CO4)CC2)C1 [compound 34] |  |  |  |  |  | CDK7_A549 mutant hCDK7(pIC50) [1]: <5; CDK7 (kinact/KI, M^−1*s^−1) [2, 9]: 2083.98 M⁻¹ s⁻¹; kinact/KI [2, 7]: 1030 M⁻¹ s⁻¹; CDK7_A549 Wild-type CDK7 (pIC50) [3]: 6.81 |
| CC#CC(=O)N1CC[C@@H](N2CC(c3cc(C)c4c(c3)Nc3nccc(N5CCOCC5)c3[C@@H](C)O4)C2)C1 (single isomer, unassigned) [Compound 289] | > 10 | 0.0628 | 2.54e-05 | 404 | 0.123 |  |
| C#CCCN(C)C/C=C/C(=O)N1CC(N2CCC(c3cc(C)c4c(c3)Nc3nccc(C5CCOCC5)c3CO4)CC2)C1 [Compound 124] | > 10 |  |  |  | 0.0977 | kinact/KI [2, 7]: 1550 M⁻¹ s⁻¹ |
| C=CC(=O)N1CC(N2CC[C@H](c3ccc4c(c3)Nc3nccc(N5CCOCC5)c3CO4)C[C@H]2C)C1 (single isomer, unassigned) [Compound 76] | > 10 |  |  |  | 0.0794 | kinact/KI [2, 7]: 1650 M⁻¹ s⁻¹ |
| C=CC(=O)N1CC(N2CC[C@H](c3ccc4c(c3)Nc3nccc(N5CCOCC5)c3CO4)C(C)(C)C2)C1 (single isomer, unassigned) [Compound 67] | > 10 | 0.0862 | 6.48e-05 | 752 | 0.214 |  |
| C=CC(=O)N1CCC(N2CCN(c3ccc4c(c3)Nc3nccc(N5CCOCC5)c3CO4)CC2)CC1 [Compound 382] | > 10 | 3.26 | 4.7e-05 | 14.4 | 0.204 |  |
| C=CC(=O)N1CC(N2CCC(c3ccc4c(c3)Nc3nccc(N5CCOCC5)c3CO4)CC2)C1 [compound 7] |  |  |  |  |  | CDK7_A549 mutant hCDK7(pIC50) [1]: <5; CDK7 (kinact/KI, M^−1*s^−1) [2, 9]: 1065.34 M⁻¹ s⁻¹; CDK7_A549 Wild-type CDK7 (pIC50) [3]: 6.84 |
| C=CC(=O)N1CC(N2CC(c3cc(C)c4c(c3)Nc3nccc(C5CCOCC5)c3[C@H](C)O4)C2)C1 (single isomer, unassigned) [Compound 252] | > 10 | 25.5 | 0.000306 | 12 | 2.51 |  |
| C=CC(=O)Nc1ccc(C(=O)Nc2ccc3c(c2)Nc2ncc(C)c(C4CCOCC4)c2CO3)cc1 [Compound 2] | > 10 |  |  |  | 0.794 | Ki ([2]; CDK7 (KI(μM)), […], 1 mM ATP, room temperature, averaged values over all measurements): 0.129 µM; kinact ([2]; read-out: CDK7 (kinact, s^−1), kinact = maximal rate of inactivation, 1 mM ATP, room temperature, averaged values over all measurements): 7.86e-05 s⁻¹; kinact/KI [2, 8]: 609 M⁻¹ s⁻¹ |
| C=CC(=O)N1CC[C@H](N2CCC(c3cc4c(c(C)n3)OCc3c(N5CCOCC5)ccnc3N4)CC2)C1 (single isomer, unassigned) [Compound 283] | > 10 | 0.187 | 7.12e-05 | 381 | 0.0692 |  |
| C=CC(=O)N1CC[C@H](N2CC(c3cc(C)c4c(c3)Nc3nccc(N5CCOCC5)c3[C@@H](C)O4)C2)C1 (single isomer, unassigned) [Compound 388] | 7.24 |  |  |  | ~0.0229 | kinact/KI [2, 7]: 1270 M⁻¹ s⁻¹ |
| C=CC(=O)N1CC[C@@H](N2CC(c3cc(C)c4c(c3)Nc3nccc(N5CCOCC5)c3CO4)C2)C1 (single isomer, unassigned) [Compound 327] | ~10 | 0.0302 | 4.16e-05 | 1380 | 0.0794 |  |
| CC#CC(=O)N1CCC(N2CCC(c3cc4c(c(C)n3)O[C@H](C)c3c(N5CCOCC5)ccnc3N4)CC2)CC1 (single isomer, unassigned) [Compound 416] | 1.86 |  |  |  | < 0.00977 | kinact/KI [2, 7]: 1750 M⁻¹ s⁻¹ |
| C=CC(=O)N1CC[C@H](N2CC(c3cc4c(c(C5CC5)n3)OCc3c(N5CCOCC5)ccnc3N4)C2)C1 (single isomer, unassigned) [Compound 326] | 7.76 |  |  |  | 0.0891 | kinact/KI [2, 7]: 939 M⁻¹ s⁻¹ |
